Results on five compounds are retold here after PMC3261798, “Design, Synthesis, and Biological Evaluation of PKD Inhibitors” (Pharmaceutics, 2011).

A value given as a limit tells only on which side of the number the result lay.

For series [1], the target named is T1, PKD1 (Homo sapiens, UniProt Q15139).
T1 sequence (Q15139 1-912): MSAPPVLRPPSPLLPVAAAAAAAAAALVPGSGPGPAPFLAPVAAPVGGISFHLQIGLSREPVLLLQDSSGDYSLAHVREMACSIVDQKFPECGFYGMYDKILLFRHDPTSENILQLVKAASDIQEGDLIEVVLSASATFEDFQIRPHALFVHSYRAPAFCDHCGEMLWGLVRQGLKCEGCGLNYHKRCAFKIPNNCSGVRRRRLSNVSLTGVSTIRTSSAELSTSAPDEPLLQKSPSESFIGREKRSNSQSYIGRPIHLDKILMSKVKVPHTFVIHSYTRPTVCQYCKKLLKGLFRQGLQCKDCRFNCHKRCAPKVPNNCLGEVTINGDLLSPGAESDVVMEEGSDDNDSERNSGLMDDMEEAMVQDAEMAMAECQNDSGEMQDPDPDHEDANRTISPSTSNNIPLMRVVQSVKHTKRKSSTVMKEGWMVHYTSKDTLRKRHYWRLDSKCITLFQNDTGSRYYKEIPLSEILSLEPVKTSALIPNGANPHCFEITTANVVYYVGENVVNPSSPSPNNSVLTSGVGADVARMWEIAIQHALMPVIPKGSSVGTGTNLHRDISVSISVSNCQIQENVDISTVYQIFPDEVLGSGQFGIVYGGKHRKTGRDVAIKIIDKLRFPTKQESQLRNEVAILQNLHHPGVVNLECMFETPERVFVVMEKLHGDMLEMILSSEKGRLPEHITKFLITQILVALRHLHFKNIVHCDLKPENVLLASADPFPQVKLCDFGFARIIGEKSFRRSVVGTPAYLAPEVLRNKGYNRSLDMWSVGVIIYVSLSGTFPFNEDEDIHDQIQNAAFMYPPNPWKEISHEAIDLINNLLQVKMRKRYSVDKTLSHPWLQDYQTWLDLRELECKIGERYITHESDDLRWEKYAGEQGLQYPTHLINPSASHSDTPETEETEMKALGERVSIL
Kind of series: Cellular PKD1 inhibition: densitometry of Western blots for PKD1 autophosphorylation at S916 in PMA-stimulated LNCaP cells. In kind it is cell-based. The following applies: for IC50: PKD1 autophosphorylation at S916 in LNCaP cells, mean ± SEM; for EC50: PMA-induced autophosphorylation of endogenous PKD1 in LNCaP prostate cancer cells; for fold improvement in cellular activity over CID755673: cellular EC50 relative to CID755673. How it is done: Inhibition of PKD 1 in cells was determined by densitometry analysis of Western blotting data for PKD1 autophosphorylation at Ser^916 in LNCaP cells as previously described. LNCaP cells were pre-treated with PKD inhibitors for 45 min at various concentrations, and then stimulated with 10 nM phorbol 12-myristate 13-acetate (PMA) for 20 min. Cells were then collected and lysed in lysis buffer containing 200 mM Tris-HCl, pH 7.4, 100 μM 4-(2-aminoethyl) benzenesulfonyl fluoride, 1 mM EGTA, and 1% Triton X-100. Cell lysates were probed by Western blot analysis using primary antibodies targeting p-S916-PKD1 (Millipore), PKD1 (Cell Signaling Technology), or GAPDH. Densitometry analysis of visualized bands was used to determine the cellular IC50 values for PKD1 inhibition.

A short description of the next series: Aqueous solubility. In kind it is physicochemical. The following applies: aqueous medium with lipophilic solubilizing agents; even in the presence of lipophilic solubilizing agents.
Series [2] deals with T1, PKD1. Kind of series: In vitro radiometric PKD kinase activity assay. The class given is biochemical. Set-up: purchased Biomol International. The following applies: for inhibitory activity against PKD (in words): preliminary biological data for kmg-NB5-13 and kmg-NB5-15; for fold improvement in PKD1 potency over CID755673: relative to parent CID755673.
Series [3] can be described thus: Stability in protic solvents. In kind it is physicochemical. The following applies: attributed to nucleophilic attack at C-4 of the pyrimidine.
Series [4] can be described thus: Preliminary in vivo studies (plasma half-life, metabolism; data not shown). The following applies: for plasma half-life: preliminary in vivo studies, data not shown.
The target in series [5] is T1, PKD1. Kind of series: IMAP-based PKD Fluorescence Polarization (FP) assay, automated HTS format. The class given is biochemical. The following applies: mean ± SEM, n = number of independent experiments. How it is done:
An automated, HTS formatted IMAP-based PKD Fluorescence Polarization (FP) assay was used to assess the specificity of the PKD analogs as previously described. […] Kinase reactions were incubated for 90 min at room temperature and stopped by the addition of IMAP binding reagent. Assay plates were then incubated for 2 h and IMAP-based FP data were captured on a Molecular Devices Spectra-Max M5 (Sunnyvale, CA, USA).
In general terms: In fluorescence polarisation assays a small probe gives low polarisation when free and higher when bound to something large.

A further series deals with all PKD isoforms. The following applies: cited from earlier work.
Setting [6] is: mean ± SEM, n = number of independent experiments, read-out: IC50 Radiometric PKD1.

One may read the melting point as the temperature of the solid-liquid transition. One may read the IC50 as the concentration needed to halve the response being measured. One may read the solubility as how much of the substance goes into solution per volume. Turning to `COc1ncc2sc3c(c2n1)SCCNC3=O` [kmg-NB4-23, 2-Methoxy-7H,8H,9H-1,4-thiazepino [7′,6′-5,4]thiopheno[3,2-d]pyrimidin-6-one], the melting point was 308 °C (dec.). This compound returned an IC50 against PKD1 [1] of 6800 ± 1300 nM. Besides, the solubility in the series “Aqueous solubility” is under 400 µg/mL. For the same compound, the IC50 at PKD1 [2] (in vitro, read-out: PKD1 IC50) stood at 124 nM. Also, on PKD1 [2] (setting [6]), the 50% inhibitory concentration (IC50) turned out to be 120 ± 30 nM. Also, the “inhibitory activity against PKD (in words)” value against PKD1 [2] is “potent nanomolar inhibitor”.
As for `O=C1NCCSc2c1sc1cnc(O)nc21` [kmg-NB4-69A, 2-Hydroxy-7H,8H,9H-1,4-thiazepino[7′,6′-5,4]thiopheno[3,2-d]pyrimidin-6-one], at PKD1 [2] (setting [6]), the IC50 stood at 25300 nM. Also, the “inhibitory activity against PKD (in words)” value against PKD1 [2] is reported as “only weak inhibitory effect”. Besides, in series [3], the “stability in protic solvents” value is “spontaneously degrades in protic solvents”.
For orientation: EC50 means the concentration that produces a half-maximal response. High values mean a need for much substance, low ones an effect from little substance. Regarding `O=C1NCCSc2c1sc1ccc(O)cc21` [kb-NB142-70, 3,4-Dihydro-9-hydroxy-[1]benzothieno[2,3-f]-1,4-thiazepin-5(2H)-one], on PKD1 [1], half-maximal inhibition (IC50) required 2220 ± 590 nM, it took 2200 nM to reach a half-maximal effect (EC50) and the “fold improvement in cellular activity over CID755673” value is listed as “ca. 5 fold”. Further, the plasma half-life entry in series [4] was “short”. The major metabolic pathway result in series [4] (preliminary results from an animal model) is listed as “glucuronidation of kb-NB142-70 at the phenolic position to be a major metabolic pathway”. The concentration for half-maximal inhibition (IC50) at PKD1 [2] (setting [6]) was determined as 28 ± 2 nM. Further, at PKD1 [2], the “fold improvement in PKD1 potency over CID755673” value is about 7 fold. Inhibition against PKD1 [5] was half-maximal at 710 ± 20 nM (IC50).
As to `COc1ccc2sc3c(c2c1)SCCNC3=O` [kb-NB165-09, 3,4-Dihydro-9-methoxy-[1]benzothieno[2,3-f]-1,4-thiazepin-5(2H)-one], at PKD1 [1], the IC50 came out at 3130 ± 540 nM, a half-maximal effect (EC50) was put at 3100 nM and the “fold improvement in cellular activity over CID755673” value was “ca. 5 fold”. In addition, the plasma half-life entry in series [4] was “short”. Moreover, the IC50 at PKD1 [2] (setting [6]) was found to be 80 ± 10 nM. Also, at PKD1 [2], the “fold improvement in PKD1 potency over CID755673” value is “ca. 7 fold”.
Turning to `O=C1NCCCc2c1oc1ccc(O)cc21` [CID755673, 7-Hydroxy-2,3,4,5-tetrahydro-[1]benzoxolo[2,3-c]azepin-1-one], the IC50 in the series on all PKD isoforms was 200 to 300 nM; against PKD1 [1] it was 11800 ± 4000 nM; on PKD1 [2] (setting [6]), 180 ± 20 nM; against PKD1 [5], 640 ± 30 nM. This compound displayed an EC50 at PKD1 [1] of 11800 nM.
